# Key:
# [1] = Double-blind placebo-controlled tolerability study of single and multiple ascending doses in healthy subjects (Example 6); type: in vivo; details: for ALT / AST: one subject
# Text: The main objective of this study was to evaluate the tolerability of single and multiple ascending doses of Hydronidone in healthy subjects to support further Phase 1 studies as well to provide supportive information for dosage regimen in Phase II clinical trials.
# This was a randomized, double-blind, placebo-controlled, in-patient study of single and multiple escalating doses of Hydronidone in healthy Chinese male and female subjects, 18-45 years of age, satisfying all inclusion and exclusion criteria. Hydronidone 100 mg and 200 mg capsule dosage strengths were used in the study. In every cohort, the subjects were randomly assigned to Hydronidone or placebo at a ratio of 3:1.
# The single-dose component of the trial included 30 subjects that received 100 mg, 200 mg, 400 mg, 600 mg and 800 mg of Hydronidone, respectively (6 subjects/cohort). The post-dose observations were performed 24 hrs following the dosing. All subjects have completed the trial. […] Mild transient dizziness following administration of the test article was reported in one subject in each of the 800 mg Hydronidone and placebo cohorts. The dizziness resolved on its own, without sequelae. The post-dose values of some of the laboratory parameters were abnormal, both in Hydronidone and placebo groups. However, these changes were not considered clinically significant.
# The multiple-dose component of the trial included 20 subjects assigned to receive 600 mg (8 subjects) three times per day (TID) (total daily dose of 1800 mg), or 800 mg of Hydronidone (12 subjects) TID (total daily dose of 2400 mg) for ten (10) consecutive days. Due to several cases of AEs of hypertriglyceridemia (4 out of 8 subjects) observed in the Hydronidone 600 mg TID dose group, the subjects (n=8) in the Hydronidone TID 800 mg dose group were divided into two subgroups, each comprising of 4 subjects. […] Due to inadvertent omission of the blood glucose test in the first sub-group (all four subjects) of the Hydronidone 800 mg TID dose group at the final study visit, per Principal Investigator decision, the enrollment was extended to include new four (4) subjects, increasing the total number of subjects in this dose group to 12. The safety evaluations were performed pre-dose, on the Day 5 of dosing, and 24 hr after the last dose of the 10-day dosing period.
# liver fibrosis = test: CCl4-induced liver fibrosis in mice; type: in vivo
# Method: Hydronidone anti-fibrotic effects were evaluated in several animal models of liver fibrosis, such as human serum albumin (HSA)-induced liver fibrosis in rats, dimethyl nitrosamine (DMN)-induced liver fibrosis in rats, and carbon tetrachloride (CCl4)-induced liver fibrosis in mice. […] In the CCl4-induced liver fibrosis in mice, Hydronidone effects were the most prominent at the doses of 3-10 mg/kg/day, although some effects were also shown at the dose of 1 mg/kg/day. In some embodiments, this dose range corresponds to human equivalent dose (HED) range of 15-50 mg. […] The HED of these rat doses are in the range of 100-2,400 mg which were all tested as safe in Phase I clinical trials of Hydronidone, with the 100 mg dose being […] the maximum daily dose of 360 mg (administered as 120 mg TID) administered to the subjects with liver fibrosis due to chronic Hepatitis B in the ongoing Phase II clinical study of efficacy and safety of Hydronidone in China.
# [2] = 800 mg TID, fifth day of dosing
# [3] = 800 mg TID, repeated test on study day 6
compound,measurement,setting,value
"Cc1ccc(=O)n(-c2ccc(O)cc2)c1 [Hydronidone, N-(4-hydroxyphenyl)-5-Methyl-2-pyridone]",instances of hypertriglyceridemia,"[1]; 600 mg TID, 10 days",3 instances
same,number of AEs reported,"[1]; 600 mg TID, 10 days",7 AEs
same,instances of hyperlipidemia,"[1]; 800 mg TID, 10 days",3 instances
same,instances of liver dysfunction,"[1]; 800 mg TID, 10 days",3 instances
same,number of AEs reported,"[1]; 800 mg TID, 10 days",14 AEs
same,deaths and SAEs,"[1]; multiple-dose component, 600 or 800 mg TID, 10 days",No deaths nor SAEs were reported
same,ALT,[1]; [2],79 U/L
same,AST,[1]; [2],47 U/L
same,ALT,[1]; [3],101 U/L
same,AST,[1]; [3],61 U/L
same,subjects with mild transient dizziness,[1]; single dose 800 mg cohort,one
same,safety and tolerability,"[1]; single dose 100, 200, 400, 600, 800 mg, healthy subjects",safe and well tolerated at all doses tested
same,deaths and serious adverse events,[1]; single-dose component,No deaths nor serious adverse events (SAEs) were reported
same,"anti-fibrotic effect (level of fibrosis, hydroxyproline, ALT, AST)",liver fibrosis,potent anti-fibrotic effect
same,dose at which some effects were also shown,liver fibrosis,1 mg/kg/day
same,doses at which effects were the most prominent,liver fibrosis,3 to 10 mg/kg/day
